Laboratory results reported in ChEMBL document CHEMBL5528001, “Synthetic product-based approach toward potential antileishmanial drug development” (Eur J Med Chem, 2024).
pEC50, pIC50: −log10 of the molar value.

Key:
Leishmania donovani [1] = test: Antileishmanial activity against Leishmania donovani infected in BALB/c mouse model assessed as reduction in parasite growth at 75 mg/kg, po administered for 5 consecutive days; assay type: functional; design: scale not given: the % may be the effect or the level left
Leishmania donovani [2] = test: Antileishmanial activity against Leishmania donovani MHOM/ET/67/HU3 intracellular amastigotes infected in human THP-1 cells assessed as inhibition of parasite growth incubated for 72 hrs by resazurin based colorimetric assay; assay type: functional, organism-based; conditions: MHOM/ET/67/HU3, THP-1, 72 h
Leishmania major [3] = test: Antileishmanial activity against Leishmania major promastigotes; assay type: functional, organism-based
Leishmania braziliensis [4] = test: Antileishmanial activity against Leishmania braziliensis promastigotes; assay type: functional, organism-based
[5] = Cytotoxicity against African green monkey Vero cells assessed as reduction in cell growth; assay type: toxicity, cell-based, Chlorocebus sabaeus
Leishmania infantum [6] = test: Antileishmanial activity against Leishmania infantum MHOM/BR/70/BH46 promastigotes assessed as reduction in parasite growth incubated for 72 hrs by resazurin staining based analysis; assay type: functional, organism-based; conditions: MHOM/BR/70/BH46, 72 h
Leishmania donovani [7] = test: Antileishmanial activity against Leishmania donovani MHOM/IN/95/9515 promastigotes assessed as inhibition of parasite proliferation measured for 48 hrs by resazurin dye-based analysis relative to control; assay type: functional; design: scale not given: the % may be the effect or the level left
[8] = Cytotoxicity against African green monkey Vero cells assessed as reduction in cell viability measured after 96 hrs by MTS assay; assay type: toxicity, cell-based, Chlorocebus sabaeus
HepG2 [9] = test: Cytotoxicity against human HepG2 cells assessed as reduction in cell growth measured for 48 hrs by MTT assay; assay type: functional
HepG2 [10] = test: Antiproliferative activity against human HepG2 cells assessed as reduction in cell growth measured for 72 hrs by MTT assay; assay type: functional, cell-based; conditions: HepG2, 72 h
Leishmania infantum [11] = test: Antileishmanial activity against Leishmania infantum MON-1 promastigotes assessed as reduction in parasite viability measured after 48 hrs by MTT assay; assay type: functional, organism-based; conditions: MON-1, 48 h
[12] = Cytotoxicity against HEK293 cells assessed as reduction in cell growth incubated for 3 days by resazurin dye based analysis; assay type: toxicity; conditions: human, time 3 day
[13] = Cytotoxicity against human THP-1 cells assessed as reduction in cell growth incubated for 3 days by resazurin dye based analysis; assay type: toxicity; conditions: time 3 day
Leishmania donovani [14] = test: Antileishmanial activity against Leishmania donovani promastigotes assessed as inhibition of cell growth measured after 3 days by resazurin/alamar blue-staining based analysis; assay type: functional, organism-based; conditions: 72 h
Leishmania major [15] = test: Antileishmanial activity against Leishmania major promastigotes assessed as reduction in parasite growth incubated for 48 hrs by MTT assay; assay type: functional, organism-based
[16] = Cytotoxicity against mouse J774.A1 cells assessed as reduction in cell viability by MTT assay; assay type: toxicity, cell-based
Leishmania infantum [17] = test: Antileishmanial activity against Leishmania infantum MHOM/BR/1972/LD intracellular amastigotes infected in mouse J774A.1 macrophages cells assessed as reduction in parasite viability after 72 hrs by MTT based analysis; assay type: functional, organism-based; conditions: J774.A1, 72 h
Leishmania infantum [18] = test: Antileishmanial activity against Leishmania infantum promastigotes infected in BALB/c mouse macrophages assessed as reduction in parasite load in spleen at 7.7 mg/kg, po administered twice as day for 5 days relative to control; assay type: functional; design: scale not given: the % may be the effect or the level left; conditions: time 5 day
Leishmania infantum [19] = test: Antileishmanial activity against Leishmania infantum promastigotes infected in BALB/c mouse macrophages assessed as reduction in parasite load in liver at 7.7 mg/kg, po administered twice as day for 5 days relative to control; assay type: functional; design: scale not given: the % may be the effect or the level left; conditions: time 5 day
[20] = Cytotoxicity against mouse Peritoneal macrophages assessed as reduction in cell viability incubated for 24 hrs by MTT assay; assay type: toxicity, cell-based, Peritoneal macrophage
[21] = Selectivity index, ratio of CC50 for human HepG2 cells to EC50 for GFP-expressing Leishmania infantum intracellular amastigotes infected in human THP-1 derived macrophage cells; assay type: toxicity, cell-based; conditions: read-out: Ratio CC50/EC50
Leishmania infantum [22] = test: Antileishmanial activity against Leishmania infantum MCAN/ES/89/IPZ229/1/89 axenic amastigotes assessed as reduction in parasite growth treated for 24 hrs by PI staining based flow cytometry; assay type: functional, organism-based; conditions: MCAN/ES/89/IPZ229/1/89, 24 h
Leishmania tropica = test: Antileishmanial activity against Leishmania tropica promastigotes incubated for 24 hrs measured by alamar blue staining based fluorescence analysis; assay type: functional, organism-based
Trypanosoma brucei = test: Antitrypanosomal activity against Trypanosoma brucei assessed as parasite growth inhibition; assay type: functional, organism-based
Leishmania infantum [23] = test: Antileishmanial activity against Leishmania infantum axenic amastigotes (MCAN/ES/89/IPZ229/1/89) assessed as inhibition of parasite proliferation measured after 24 hrs by resazurin dye based fluorescence analysis; assay type: functional, organism-based; conditions: MCAN/ES/89/IPZ229/1/89, 24 h
Leishmania donovani [24] = test: Antileishmanial activity against Leishmania donovani promastigotes infected in golden hamster assessed as reduction in parasite load in spleen at 20 mg/kg administered twice per week for 4 weeks relative to control; assay type: functional; design: scale not given: the % may be the effect or the level left
Leishmania braziliensis [25] = test: Antileishmanial activity against Leishmania braziliensis MHOM/BR/75/M2904 promastigotes assessed as reduction in cell viability incubated for 48 hrs by resazurin staining based assay; assay type: functional, organism-based; conditions: MHOM/BR/75/M2904, 48 h
Leishmania donovani [26] = test: Antileishmanial activity against Leishmania donovani promastigotes infected in golden hamster assessed as reduction in parasite load in liver at 20 mg/kg administered twice per week for 4 weeks relative to control; assay type: functional; design: scale not given: the % may be the effect or the level left
Leishmania amazonensis [27] = test: Antileishmanial activity against Leishmania amazonensis MHOM/BR/1989/166MJO promastigotes infected in mouse peritoneal macrophage assessed as inhibition of parasite growth measured for 24 hrs by MTT assay; assay type: functional, organism-based; conditions: Peritoneal macrophage cell
Leishmania infantum [28] = test: Antileishmanial activity against Leishmania infantum MHOM/BR/1972/BH46 amastigotes assessed as reduction in cell viability measured for 48 hrs by PI staining based flow cytometry analysis; assay type: functional, organism-based; conditions: MHOM/BR/1972/BH46, 48 h
Leishmania infantum [29] = test: Antileishmanial activity against Leishmania infantum MHOM/BR/1972/BH46 promastigotes assessed as reduction in parasite viability measured for 48 hrs by PI staining based flow cytometry analysis; assay type: functional, organism-based; conditions: MHOM/BR/1972/BH46, 48 h
Leishmania amazonensis [30] = test: Antileishmanial activity against Leishmania amazonensis MHOM/BR/71973/M2269 promastigotes assessed as reduction in parasite viability measured for 48 hrs PI staining based flow cytometry analysis; assay type: functional, organism-based; conditions: MHOM/BR/71973, 48 h
Leishmania amazonensis [31] = test: Antileishmanial activity against Leishmania amazonensis promastigotes assessed as reduction in parasite viability after 72 hrs by CCK-8 assay; assay type: functional, organism-based
Leishmania braziliensis [32] = test: Antileishmanial activity against Leishmania braziliensis promastigotes assessed as reduction in parasite viability after 72 hrs by CCK-8 assay; assay type: functional, organism-based
Leishmania donovani [33] = test: Antileishmanial activity against Leishmania donovani Ag83 promastigotes infected in BALB/c mouse assessed as reduction in parasite infection at 5 to 20 mg/kg by propidium iodide staining analysis; assay type: functional, organism-based

Work on `CC(C)Oc1cc(OCCCCCCCCn2ccnc2)ccc1NC(=N)c1ccccn1` yielded an Activity (Leishmania donovani [1]) of 33% and a pIC50 (Leishmania donovani [2]) of 6.28.
Work on `Cc1cc(OCCCCCNC(C)(C)C)cc2oc3cc(OCCCCCNC(C)(C)C)cc(O)c3c(=O)c12` yielded a pIC50 (Leishmania major [3]) of 5.27, a pIC50 (Leishmania braziliensis [4]) of 5.62 and a pIC50 [5] of 4.81.
In the case of `Cc1cc(Br)cc2c(/C=N/NC(=S)Nc3ccccc3)c[nH]c12`, the pIC50 (Leishmania infantum [6]) was 5.25.
`O=C(Cn1cnc2cc(Cl)ccc2c1=O)n1cnc2cc(Cl)ccc2c1=O` showed an Activity (Leishmania donovani [7]) of 29% and an IC50 at 96 h [8] of 0.03 µM.
`CCOC(=O)c1cc2c([nH]c3ccccc32)c(-c2cc3ccccc3n3nnnc23)n1` gave a CC50 (HepG2 [9]) of 27.9 µM, a pEC50 (HepG2 [10]) of 4.99 and a pEC50 (Leishmania infantum [11]) of 5.47.
Work on `COc1cc(/C=C2/Oc3cc(O)ccc3C2=O)cc(OC)c1` yielded a CC50 at 72 h [12] of over 200 µM and a CC50 at 72 h [13] of 96.9 µM.
Compound `O=c1c2ccccc2nc(/C=C/c2ccc([N+](=O)[O-])cc2)n1-c1ccccc1` has a pIC50 (Leishmania donovani [14]) of 7.70.
Work on `COc1ccc(C(=O)NC(=S)Nc2nc(-c3ccccc3)c(C)s2)cc1` yielded a pIC50 (Leishmania major [15]) of 4.07.
Work on `NC(=S)N/N=C(/C=C/c1cccnc1)c1cccc(NC(=O)Nc2ccc(Cl)cc2)c1` yielded a pIC50 [16] of 5.42.
`NC(=O)N/N=C/c1ccc(Oc2no[n+]([O-])c2-c2ccccc2)cc1` showed a pEC50 (Leishmania infantum [17]) of 5.44, an Activity (Leishmania infantum [18]) of 90% and an Activity (Leishmania infantum [19]) of 90%. The CC50 at 24 h [20] was 500 µM.
For `Nc1ccnn1C(=O)C1CCC2(CC1)OOC1(O2)C2CC3CC(C2)CC1C3` (stereo not given), the selectivity ratio [21] was under 5, the pIC50 (Leishmania infantum [22]) was 3.66 and the pIC50 (Leishmania tropica) was 3.66.
`CCCc1cn(CCN2CCN(C(=O)c3c(C)nc4ccc(C)cn34)CC2)nn1` gave a pIC50 (Trypanosoma brucei) of 6.14.
In the case of `CCCCCCCCCn1cc(COC(C)=O)[n+](C)n1`, the pIC50 (Leishmania infantum [23]) was 5.27, the Activity (Leishmania donovani [24]) was 59.8% and the pIC50 (Leishmania braziliensis [25]) was 5.34. It also gave an Activity (Leishmania donovani [26]) of 26.88%.
With `COc1cc(C(=O)/C=C/c2ccc([N+](=O)[O-])cc2)c(C(C)=O)c2c(OC)cccc12` the pIC50 (Leishmania amazonensis [27]) was 4.73.
For `C=CCc1cc(OC)c2oc(=O)c(C(=O)c3ccccc3)cc2c1`, the pIC50 (Leishmania infantum [28]) was 4.74, the pIC50 (Leishmania infantum [29]) was 4.57 and the pIC50 (Leishmania amazonensis [30]) was 4.09.
With `COc1cc(OC)c(C(=O)/C=C/c2cccc(C)c2)c([N+](=O)[O-])c1` the pEC50 (Leishmania amazonensis [31]) was 6.38 and the pEC50 (Leishmania braziliensis [32]) was 5.84.
With `O=C(Nc1cncs1)C(c1ccccc1)c1ccc(Cl)cc1` (stereo not given) the pIC50 (Leishmania donovani [33]) was 5.49.
